Experimental data as given in PMC1851987, “Identification of the Endogenous Key Substrates of the Human Organic Cation Transporter OCT2 and Their Implication in Function of Dopaminergic Neurons” (PLoS ONE, 2007).
Changes are numbered by the printed parent chain.

Experiments:
[1] = molecular target: T1, OCT2 variant K432Q (Homo sapiens, UniProt O15244, K432Q/S270A); experiment: Specific uptake into HEK-293 cells transfected with OCT2 variant K432Q
T1 sequence (O15244 1-555 S270A/K432Q): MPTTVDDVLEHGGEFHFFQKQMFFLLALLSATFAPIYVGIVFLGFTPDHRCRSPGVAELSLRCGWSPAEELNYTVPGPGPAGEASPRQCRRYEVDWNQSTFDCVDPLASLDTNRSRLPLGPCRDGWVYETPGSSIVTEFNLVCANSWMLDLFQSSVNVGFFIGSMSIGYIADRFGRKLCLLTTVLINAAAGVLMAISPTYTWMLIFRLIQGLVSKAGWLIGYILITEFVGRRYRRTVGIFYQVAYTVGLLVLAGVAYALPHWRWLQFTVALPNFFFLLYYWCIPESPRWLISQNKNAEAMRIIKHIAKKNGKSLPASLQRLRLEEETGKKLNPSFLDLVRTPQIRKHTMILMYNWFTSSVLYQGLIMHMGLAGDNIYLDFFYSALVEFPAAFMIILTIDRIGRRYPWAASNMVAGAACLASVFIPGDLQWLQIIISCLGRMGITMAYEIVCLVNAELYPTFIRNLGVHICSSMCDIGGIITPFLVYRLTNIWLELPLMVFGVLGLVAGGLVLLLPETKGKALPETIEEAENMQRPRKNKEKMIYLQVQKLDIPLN
Method: The cDNAs encoding the organic cation transporters OCT1 (GenBank accession no. NM_003057), OCT2 (NM_003058), and EMT (NM_021977) were amplified by RT-PCR from human liver, kidney, and placenta total RNA respectively, and subcloned into the eukaryotic expression vector pcDNA3. The cDNA encoding the norepinephrine transporter (SLC6A2) was kindly provided by C. Pifl (University of Vienna).
For uptake experiments, cells were grown on polystyrene dishes of 60 mm diameter to at least 80% confluence. […] Cells were lysed with 1 ml of 4 mmol/l perchloric acid and lysates subjected to LC-MS-MS quantification. Cellular protein content was determined after solubilization of perchloric acid precipitates with 1 ml of […] NaOH using the bicinchoninic assay (BCA Protein Assay Kit, Pierce).
Chromatographic separations were performed on Hypercarb (5 µm, 50×2.1 mm; Thermo Electron), Aquasil C18 (3 µm, 100×4.6 mm; Thermo Electron), or Hilic columns (5 µm, 100×3.0 mm; Waters Atlantis) by isocratic or gradient elution using 0.1% aqueous formic acid (A) and acetonitrile or methanol (B) as solvent system. For quantification, SRM transitions of a precursor ion [M+H]^+ into a specific fragment ion (peak area ratios relative to IS) were recorded in positive ESI mode at 1.0–1.5 mTorr collision pressure and 10–40 eV collision energy. […]

[2] = test system: OCT2 (wild-type 400R); experiment: MTT reduction cell viability assay, OCT2 (wild-type 400R) transfected HEK-293 cells; assay type: cell-based, human; conditions: human, HEK-293 cells transfected with OCT2 (wild-type 400R); 48 h exposure, no pretreatment; read-out: EC50 (95% confidence interval), cell viability
Method: (§1) Cell viability was assessed in HEK-293 cells, human dopaminergic neuroblastoma cells (SH-SY5Y) and human glioblastoma cells (HTZ-146) by the MTT test as described.[22] […] For indication of metabolic activity, cells were treated with MTT reagent (15 µl of 1 mg/ml stock solution per well) for 1 h, and after drying of culture plates for 1 h at 37°C, the resulting formazan dye was extracted with isopropanol/HCl (100 µl 0.04 mol/l per well) and absorbance was determined spectrophotometrically at 568 nm.

[3] = test system: OCT1; experiment: MTT reduction cell viability assay, OCT1-transfected HEK-293 cells; assay type: cell-based; conditions: human, HEK-293 cells transfected with OCT1; 48 h exposure; read-out: EC50 (95% confidence interval), cell viability
[4] = test system: OCT2 mutant 400C variant; experiment: MTT reduction cell viability assay, HEK-293 cells expressing OCT2 mutant 400C variant; assay type: cell-based; conditions: human, 48 h exposure after 12 h incubation with cyclo(his-pro) 10 µmol/l, read-out: EC50 (95% confidence interval), cell viability
[5] = test system: HEK-293 cells expressing OCT2; experiment: MTT reduction cell viability assay, OCT2 (wild-type 400R) transfected HEK-293 cells; assay type: cell-based, human; conditions: cyclo(his-pro) 10 µmol/l, 12 h prior to salsolinol treatment
Method: as §1

[6] = molecular target: T2, OCT2 (Homo sapiens, UniProt O15244, S270A); experiment: Substrate search: uptake from fetal bovine serum into OCT2-transfected vs control HEK-293 cells, ESI-LC-MS-MS; conditions: 30 min incubation with 100% fetal bovine serum, OCT2 vs HEK-293 cells without OCT2
T2 sequence (O15244 1-555 S270A): T1 sequence (O15244 1-555 S270A/K432Q) with Q432K
Method: Uptake experiments were conducted in OCT2-transfected human embryonic kidney cells (HEK-293) by incubation with fetal bovine serum. Specific OCT2-mediated uptake of a compound from serum was assessed in comparison to HEK-293 cells without OCT2 expression by running positive electrospray ionization tandem mass spectrometry analysis (ESI-LC-MS-MS).
After termination of uptake by washing with ice-cold HEPES-Krebs buffer and protein precipitation with 4 mmol/l perchloric acid or 100% acetonitrile in the case of brain homogenates, lysates were analyzed by LC-MS-MS operating in product scan positive electrospray ionisation mode (ESI) on a TSQ Quantum triple-quadrupole tandem mass spectrometer equipped with a thermostated (5°C) Surveyor autosampler and a thermostated (30°C) Surveyor HPLC system (Thermo Electron). Spray voltage was set at 4500 V, and capillary temperature was kept at 350°C. Nitrogen sheath gas and auxiliary gas pressure were 40 and 4 psi respectively. The collision gas was argon and collision-induced dissociation (CID) took place at 1.5 mTorr and 25 eV. […] 1-Methyl-4-phenyl-pyridinium iodide (MPP^+, 500 ng/ml) was applied as internal standard (IS) and the m/z 170→128 transition was simultaneously recorded by single reaction monitoring (SRM) at 36 eV collision energy. […]

Clin ([1]; incubation with 10 µmol/l, mean (s.e.m.)) | specific uptake from serum, fold above the control [6] | SMILES | Km at 1 min ([1]; human, pH 7.4) | EC50 at 48 h [2] | EC50 at 48 h [3] | EC50 at 48 h [4] | effect of pretreatment on salsolinol-induced degeneration [5]
 |  | CC1NCCc2cc(O)c(O)cc21 (stereo not shown) [salsolinol] | 129 µM | 192 µM | 627 µM | 406 µM | 
26.0 (4.3) µl/mg/min | > 2 fold | O=C1NC(Cc2c[nH]cn2)C(=O)N2CCCC12 (stereo not shown) [cyclo(his-pro), histidyl-proline diketopiperazine] |  |  |  |  | prevented degeneration
